For one data set, the target named is T1, topo IV from E. coli (Escherichia coli, UniProt P20083).
T1 construct: purchased Inspiralis
The experiment in a line: relaxation HTS plate assay. The data set is classed as biochemical. Conditions: IC50. As for the experimental part: (§1) All compounds were tested for their inhibitory activities against DNA gyrase and topo IV from E. coli in supercoiling and relaxation high-throughput plate assays, respectively. Our new series of inhibitors were then tested against a panel of Gram-positive and Gram-negative bacteria.
(§2) Seven concentrations of the inhibitors were used to determine IC50 values which were then calculated with GraphPad Prism 6.0 software. Three independent measurements were performed to determine IC50 values, and mean values are reported as the final result.

The subject of another data set is A. baumannii ATCC 17978. The experiment in a line: MIC broth microdilution (CLSI). The data set is classed as cell-based. Conditions: Acinetobacter baumannii, ATCC17978. As for the experimental part:
(§3) Cation-adjusted Mueller Hinton broth 2 (MHBII) was used for bacterial growth under standard laboratory conditions and for antimicrobial susceptibility tests. MHBII broth was prepared by dissolving 22 g of MHBII powder [containing beef extract (3 g), acid hydrolysate of casein (17.5 g), and starch (1.5 g); Becton Dickinson and Co.] in 1 L of water. To prepare MHBII agar, 14 g of agar (Bacto; Molar Chemicals) was added to 1 L of broth.
(§4) Bacterial strains were inoculated onto MHBII agar plates and grown overnight at 37 °C. Next, three individual colonies from each strain were inoculated into 1 mL of MHBII medium and propagated at 37 °C overnight, with agitation at 250 rpm. For Enterococcus sp., the cells were plated in brain–heart infusion [(BHI) medium] agar plates, and BHI broth was used to determine the MICs. […] Following the dilutions, each well was seeded with 5 × 10^4 bacterial cells (in 100 μL final volume). Each measurement was performed in three parallel replicates, and to avoid possible edge effects in the microwell plates, the outside rows (A, H) were filled with sterile medium. Following the inoculations, the plates were covered with the lids and wrapped in polyethylene plastic bags, to minimize evaporation but to allow O2 transfer. […] After incubation, the OD600 of each well was measured using a microplate reader (Synergy 2; Biotek).
In general terms: Dilution methods test growth across graded concentrations, often in twofold steps.

The test system of the next data set is S. aureus ATCC 29213. Briefly: MIC broth microdilution (CLSI). The format is cell-based. The note with it: Staphylococcus aureus, ATCC29213. As for the experimental part: as §3, §4
The subject of another data set is K. pneumoniae ATCC 10031. The experiment in a line: MIC broth microdilution (CLSI). The note with it: Klebsiella pneumoniae, ATCC10031; read-out: MIC. The data set is classed as cell-based. As for the experimental part:
as §3, with “MICs (Tables 1 and S1–S3) were determined with a standard serial broth microdilution technique according to Clinical and Laboratory Standards Institute (CLSI) guidelines.[45] Cation-adjusted” for “Cation-adjusted”
(§5) Bacterial strains were inoculated onto MHBII agar plates and grown overnight at 37 °C. Next, three individual colonies from each strain were inoculated into 1 mL of MHBII medium and propagated at 37 °C overnight, with agitation at 250 rpm. For Enterococcus sp., the cells were plated in brain–heart infusion [(BHI) medium] agar plates, and BHI broth was used to determine the MICs. […] The highest final DMSO concentration in the experiments was 0.64% (in the case of the 64 μg/mL concentration of the inhibitor). Following the dilutions, each well was seeded with 5 × 10^4 bacterial cells (in 100 μL final volume). Each measurement was performed in three parallel replicates, and to avoid possible edge effects in the microwell plates, the outside rows (A, H) were filled with sterile medium. Following the inoculations, the plates were covered with the lids and wrapped in polyethylene plastic bags, to minimize evaporation but to allow O2 transfer. The plates were incubated at 37 °C under continuous shaking at 150 rpm for 18 h. After incubation, the OD600 of each well was measured using a microplate reader (Synergy 2; Biotek). The MICs were defined as the antibiotic concentrations which inhibited the growth of the bacterial cultures; that is, the drug concentration where the average OD600 increment of the three technical replicates was below 1.5-fold the background OD increment.

A further data set has as its system E. coli ATCC 25922. Briefly: MIC broth microdilution (CLSI). The format is cell-based. Conditions: Escherichia coli, ATCC25922; read-out: MIC. As for the experimental part:
as §3, with “MICs (Tables 1 and S1–S3) were determined with a standard serial broth microdilution technique according to Clinical and Laboratory Standards Institute (CLSI) guidelines.[45] Cation-adjusted” for “Cation-adjusted”
as §5

Data set [1] concerns S. aureus (MRSA) ATCC 43300. Briefly: MIC broth microdilution (CLSI). The data set is classed as cell-based. Conditions: Staphylococcus aureus. The method, then: as §3, with “MICs (Tables 1 and S1–S3) were determined with a standard serial broth microdilution technique according to Clinical and Laboratory Standards Institute (CLSI) guidelines.[45] Cation-adjusted” for “Cation-adjusted”
as §5

Data set [2] has as its system Enterobacter cloacae spp. cloacae ATCC 13047. The experiment in a line: MIC broth microdilution (CLSI). The data set is classed as cell-based. Conditions: Enterobacter cloacae, ATCC13047; read-out: MIC. As for the experimental part:
as §3, with “MICs (Tables 1 and S1–S3) were determined with a standard serial broth microdilution technique according to Clinical and Laboratory Standards Institute (CLSI) guidelines.[45] Cation-adjusted” for “Cation-adjusted”
as §5

The next data set has as its system P. aeruginosa ATCC 27853. The experiment in a line: MIC broth microdilution (CLSI). The data set is classed as cell-based. Conditions: Pseudomonas aeruginosa, ATCC27853; read-out: MIC. The method, then: as §3, with “MICs (Tables 1 and S1–S3) were determined with a standard serial broth microdilution technique according to Clinical and Laboratory Standards Institute (CLSI) guidelines.[45] Cation-adjusted” for “Cation-adjusted”
as §5

The target in a further data set is T2, DNA gyrase from E. coli (Escherichia coli, UniProt P0AES6).
T2 construct: purchased Inspiralis
Briefly: supercoiling HTS plate assay. The format is biochemical. The note with it: IC50 [nM] E. coli DNA gyrase. As for the experimental part:
as §1, §2

Data set [3] has as its system Enterococcus faecalis ATCC 29212. Briefly: MIC broth microdilution (CLSI). The data set is classed as cell-based, E. faecalis. The note with it: Enterococcus faecalis, ATCC29212; read-out: MIC. As for the experimental part:
as §3, with “MICs (Tables 1 and S1–S3) were determined with a standard serial broth microdilution technique according to Clinical and Laboratory Standards Institute (CLSI) guidelines.[45] Cation-adjusted” for “Cation-adjusted”
as §5

For data set [4], the system named is 3 sensitive and 7 MDR A. baumannii clinical isolates. The experiment in a line: MIC, Hungarian clinical isolates and controls (384-well). The format is cell-based.
Data set [5] concerns Chinese hamster ovary K1 cells. Briefly: in vitro micronucleus test. Conditions: without S9, 1 µM.
For data set [6], the system named is S. aureus ATCC 700699 (VISA). The format is in vivo, female CD-1 mice. As for the experimental part:
The neutropenic mouse thigh infection model study was performed by NeoSome Life Sciences, LLC (Lexington, MA, USA) according to NeoSome Institutional Animal Care and Use Committee (IACUC) policies and guidelines as well as NIH’s Office of Laboratory Animal Welfare (OLAW) standards.
Neutropenic mouse thigh infection experiments were performed on female CD-1 mice (Charles River Laboratories, USA). To induce neutropenia, mice received two doses of cyclophosphamide on days −4 and −1 with 150 and 100 mg/kg delivered intraperitoneally (IP), respectively. The inoculum of the testing strain, S. aureus ATCC 700699-P1 (VISA), was prepared from overnight agar plate cultures. To prepare bacterial inoculums, a portion of the plate was resuspended in sterile saline and adjusted to an OD of 0.12 at 625 nm. Next, the resulted bacterial suspension was further diluted to reach an infecting inoculum of 6.0 × 10^5 cfu per each mouse. Plate counts of the inoculum were also performed in each case to confirm the inoculum concentration, and the actual inoculum size was 7.25 × 10^5 cfu/mouse. Mice were inoculated with 100 μL of the prepared bacterial suspension via an intramuscular injection into the right rear thigh. […] The test agent was then dosed via IV administration, to ensure optimal distribution, at 2, 10, and 18 h post-infection. Beginning at 2 h, post-infection mice were dosed with either test article or positive control antibiotic. Mice receiving test agents were dosed intravenously at 10 mL/kg. Linezolid was delivered as a SC dose to ensure optimized exposure, distribution, and efficacy. Four animals were dosed per group. One group of four mice was euthanized at the initiation of therapy (t = 2 h) and cfus determined. All remaining mice were euthanized at 26 h post-infection. At termination, thighs were aseptically excised, weighed, and homogenized to a uniform consistency in 2 mL of sterile saline. The homogenate was serially diluted and plated on bacterial growth media. The cfus were enumerated after overnight incubation.

Results on nine compounds are retold here after paper PMC10041525, “New Dual Inhibitors of Bacterial Topoisomerases with Broad-Spectrum Antibacterial Activity and In Vivo Efficacy against Vancomycin-Intermediate Staphylococcus aureus” (Journal of Medicinal Chemistry, 2023).

Values joined by “and” are separate entries in the source; they are usually repeats but may differ in a detail not shown here. Identical values can stand only once. Like-named read-outs stand apart in the source and are kept apart here.

T1 sequence (P0AFI2 whole entry): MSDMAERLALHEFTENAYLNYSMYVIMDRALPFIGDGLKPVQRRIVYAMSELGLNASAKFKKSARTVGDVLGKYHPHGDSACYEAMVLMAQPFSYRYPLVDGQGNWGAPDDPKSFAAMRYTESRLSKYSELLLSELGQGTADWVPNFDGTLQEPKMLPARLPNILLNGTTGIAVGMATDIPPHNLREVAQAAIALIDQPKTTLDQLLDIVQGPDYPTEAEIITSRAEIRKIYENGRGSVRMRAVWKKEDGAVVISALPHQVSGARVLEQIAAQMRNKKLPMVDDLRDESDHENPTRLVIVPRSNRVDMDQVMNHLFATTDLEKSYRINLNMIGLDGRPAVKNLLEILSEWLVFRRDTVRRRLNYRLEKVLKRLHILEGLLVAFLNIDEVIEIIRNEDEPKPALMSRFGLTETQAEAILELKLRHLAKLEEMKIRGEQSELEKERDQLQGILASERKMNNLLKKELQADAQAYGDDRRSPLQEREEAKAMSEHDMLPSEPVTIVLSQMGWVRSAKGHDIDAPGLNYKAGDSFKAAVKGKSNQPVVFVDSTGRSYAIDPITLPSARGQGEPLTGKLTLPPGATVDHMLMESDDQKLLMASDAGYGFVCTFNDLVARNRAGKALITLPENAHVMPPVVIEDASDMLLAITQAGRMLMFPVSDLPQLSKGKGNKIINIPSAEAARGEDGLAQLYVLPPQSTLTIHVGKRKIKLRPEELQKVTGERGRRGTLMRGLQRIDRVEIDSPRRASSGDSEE
T1 sequence (P20083 whole entry): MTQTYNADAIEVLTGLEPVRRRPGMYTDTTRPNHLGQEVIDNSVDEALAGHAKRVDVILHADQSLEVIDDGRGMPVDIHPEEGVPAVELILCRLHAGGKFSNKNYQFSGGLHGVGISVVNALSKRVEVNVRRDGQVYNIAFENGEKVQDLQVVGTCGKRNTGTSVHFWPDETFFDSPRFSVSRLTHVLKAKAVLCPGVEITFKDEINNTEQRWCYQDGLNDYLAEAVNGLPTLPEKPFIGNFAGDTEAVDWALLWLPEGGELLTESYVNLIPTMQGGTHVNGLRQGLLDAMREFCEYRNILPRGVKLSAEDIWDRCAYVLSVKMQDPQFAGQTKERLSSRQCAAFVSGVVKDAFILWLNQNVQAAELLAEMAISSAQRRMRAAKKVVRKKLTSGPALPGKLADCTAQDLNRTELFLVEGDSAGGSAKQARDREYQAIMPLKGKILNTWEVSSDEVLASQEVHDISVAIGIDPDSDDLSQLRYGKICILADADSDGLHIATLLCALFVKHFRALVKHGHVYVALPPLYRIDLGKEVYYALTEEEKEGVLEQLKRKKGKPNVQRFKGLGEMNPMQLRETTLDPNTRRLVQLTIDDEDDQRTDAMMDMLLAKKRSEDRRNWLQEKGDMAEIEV

As for `COCCCNc1cc(C(=O)O)cc2sc(NC(=O)c3[nH]c(C)c(Cl)c3Cl)nc12.N` [8c, 2-(3,4-Dichloro-5-methyl-1H-pyrrole-2-carboxamido)-4-((3-methoxypropyl)amino)benzo[d]thiazole-6-carboxylic Acid], the IC50 against topo IV from E. coli amounted to 0.19 ± 0.006 µM; on DNA gyrase from E. coli it was 15 ± 5 nM. The MIC was 2 µg/mL in the data set on A. baumannii ATCC 17978 (read-out: MIC); 2 µg/mL in the data set with A. baumannii ATCC 17978 (read-out: MIC [µg/mL] (A. baumannii ATCC 17978)); less than 0.0312 µg/mL in the data set with S. aureus ATCC 29213 (read-out: MIC); less than 0.0312 µg/mL in the data set on S. aureus ATCC 29213 (read-out: MIC [µg/mL](S. aureus ATCC 29213)); 2 µg/mL with K. pneumoniae ATCC 10031; 8 µg/mL in the data set on E. coli ATCC 25922. Also, the MIC in [1] (read-out: MIC) was less than 0.0312 µg/mL; in [1] (read-out: MIC [µg/mL](S. aureus MRSA ATCC4330)), less than 0.0312 µg/mL; in data set [2] it was more than 64 µg/mL; with P. aeruginosa ATCC 27853, 8 µg/mL; in [3] it was more than 0.0312 µg/mL.
Turning to `NCC[C@H](O)C(=O)N[C@@H]1C[C@H](N)[C@@H](O[C@H]2O[C@H](CN)[C@@H](O)[C@H](O)[C@H]2O)[C@H](O)[C@H]1O[C@H]1O[C@H](CO)[C@@H](O)[C@H](N)[C@H]1O` [Amikacin, amikacin], the “Cumulative % at MIC” value stood at 10% in data set [4] (n=10, MIC 2 µg/mL) and 100% in data set [4] (n=10, MIC 256 µg/mL).
Regarding `C[C@@H](O)[C@H]1C(=O)N2C(C(=O)O)=C(S[C@@H]3CN[C@H](CNS(N)(=O)=O)C3)[C@H](C)[C@H]12` [Doripenem, doripenem], the “Cumulative % at MIC” value is reported as 10% in data set [4] (n=10, MIC 0.0625 µg/mL); 30% in data set [4] (n=10, MIC 2 µg/mL); 60% in data set [4] (n=10, MIC 128 µg/mL); 100% in data set [4] (n=10, MIC 256 µg/mL); 20% in data set [4] (n=10, MIC […]).
With `CO[C@@]12[C@H](COC(N)=O)C3=C(C(=O)C(C)=C(N)C3=O)N1C[C@@H]1N[C@@H]12` [Mitomycin C], the No. binucleate cells in [5] is on record as 920.
In the case of `NC[C@H]1O[C@H](O[C@H]2[C@H](O)[C@@H](O[C@H]3O[C@H](CO)[C@@H](O)[C@H](N)[C@H]3O)[C@H](N)C[C@@H]2N)[C@H](N)C[C@@H]1O` [Tobramycin, tobramycin], the “Cumulative % at MIC” value is 10% in [4] (n=10, MIC 1 µg/mL); 20% in data set [4] (n=10, MIC 2 µg/mL); 70% in [4] (n=10, MIC […] µg/mL); 100% in data set [4] (n=10, MIC 256 µg/mL); 60% in data set [4] (n=10, MIC […] µg/mL).
As for `CC(=O)NC[C@H]1CN(c2ccc(N3CCOCC3)c(F)c2)C(=O)O1` [linezolid], the “Change in log10CFU/gr of thigh from 2 hour control” value in data set [6] (50 mg/kg BID/SC) is -0.61. In addition, the “Average log10CFU/gr of thigh” value in [6] (50 mg/kg BID/SC, 26 h) is given as 5.69. Further, in data set [6] (50 mg/kg SC (BID)), the “reduction compared to 2 hour infection controls” value is listed as 0.61 log10 cfu and the “reduction compared to 26 hour infection controls” value worked out at 2.41 log10 cfu. Besides, in data set [6] (linezolid group), the “CFU/ g of thigh, single animals” value is 7.27E+05 and 7.86E+05 and 5.42E+05 and 1.84E+05; the “log CFU, single animals” value is 5.86 and 5.90 and 5.73 and 5.26.
As for colistin, in data set [4], the “Cumulative % at MIC” value is 50% and 70% and 100%. The “MIC inhibiting all strains” value in [4] (all 10 isolates) worked out at 4 µg/mL.
For the compound imipenem/relebactame, the “Cumulative % at MIC” value in data set [4] (n=10, MIC 0.5 µg/mL) was found to be 20%; in [4] (n=10, MIC 2 µg/mL), 30%; in data set [4] (n=10, MIC 64 µg/mL), 70%; in data set [4] (n=10, MIC 128 µg/mL), 90%; in data set [4] (n=10, MIC 256 µg/mL), 100%.
Regarding trimethoprim/sulfamethoxazole, the “Cumulative % at MIC” value in [4] (n=10, MIC […] µg/mL) is on record as 20%; in data set [4] (n=10, MIC 32 µg/mL), 70%; in [4] (n=10, MIC 64 µg/mL) it was 100%.

The IC50 is the concentration that inhibits the measured activity by half. A low value points to inhibition by little substance.
